In US11926580B2, “Hydropersulfide precursors” (THE JOHNS HOPKINS UNIVERSITY, priority 2018, dated 2024):

How the values were obtained:
[1] = system: cardiomyocyte H9c2 cells; assay: Cytotoxicity / cell viability assay with Cell Counting Kit-8; assay type: cell-based; settings: 50 μM, 24 h, CCK-8
Description: (§1) FIGS. 6a and 6b provide graphs of (a) the cell viability of cardiomyocyte H9c2 cells following incubation of the RSSH precursor 4d (50 μM) and phenylcynamide (200 μM) for 24 h; and (b) the cytoprotective effects of the RSSH precursor 4d observed following pretreatment of H9c2 cells with either 4d (50 μM) or phenylcynamide (200 μM) for 2 h, followed by hydrogen peroxide (200 μM) treatment for 2 h. Quantification of cell viability was carried out using Cell Counting Kit-8 (CCK-8). Results are expressed as the mean±SEM (n=6).
The cytotoxicity and impact on cell viability of the hydropersulfide (RSSH) precursor 4d have been examined using the cardiomyocyte H9C2 cell line and Cell Counting Kit-8 (CCK-8). A cell viability assay reveled that 4d was not cytotoxic at 50 μM ([…]).

[2] = system: cardiomyocyte H9c2 cells; assay: Cytoprotection against hydrogen peroxide-induced cytotoxicity; assay type: cell-based; settings: pretreatment 2 h (4d 50 μM; phenyl cyanamide 200 μM), then H2O2 200 μM 2 h, CCK-8
Description: as §1
Since hydropersulfides are reported to mitigate oxidative stress, the ability of RSSH precursor 4d to protect cardiomyocyte H9c2 cells from cytotoxicity induced by hydrogen peroxide (H2O2) was tested.

[3] = Decomposition of precursor at pH 6 and pH 8.5; assay type: physicochemical
Description: Based on the clean formation of hydropersulfide and aryl cyanamide during decomposition of 4d-h, the general mechanism shown in Scheme 5 is proposed. Neutralization of S-alkyl-thioisothiourea 7 (or its resonance partner 7a) occurs at pH 7.4 to produce a neutral species 8 and/or 8a, which can further undergo an elimination reaction to produce RSSH and aryl cyanamide. The elimination reaction can be initiated by either donation of the imine-nitrogen lone pair of 8 to form aryl cyanamide and RSSH (Scheme 5, eq. 2) or deprotonation of the arylamino-nitrogen proton to form RSSH and an aryl carbodiimide, which can further undergo tautomerization to afford the aryl cyanamide (Scheme 5, eq. 3). Alternately, an elimination reaction can be initiated by donation of the nitrogen lone pair of intermediate 8a to produce RSSH and aryl carbodiimide (Scheme 5, eq. 1). The decomposition of precursor 4d was examined at pH 6 and pH 8.5. […] In addition, the thermodynamic stability of the aryl cyanamide produced could contribute to the observed rate of RSSH release.

[4] = Kinetics of RSSH generation by 1H NMR with NEM trapping; assay type: physicochemical; settings: pH 7.4 buffer with 20% MeOD, pH 7.4; read-out: half-life of precursor

## CC(=O)NC(C(=O)O)C(C)(C)SSC(=N)Nc1ccccc1.Cl (stereo not drawn) [Precursor 4d, ((1-acetamido-1-carboxy-2-methylpropan-2-yl)disulfaneyl)(phenylamino)methaniminium chloride]
[1]
  cytotoxicity (cell viability): not cytotoxic
[2]
  cytoprotection from H2O2-induced cytotoxicity: significant cytoprotection
[3]; pH 6 (lower pH)
  decomposition rate: substantially slowed
[3]; pH 8.5 (higher pH)
  decomposition rate: increased
other
  melting point: 155 to 157 °C
[4]
  half-life: 4.3 min
